Data on three molecules can be found in US20250051729A1, “METHOD FOR PREPARING HIGHLY DIFFERENTIATED KIDNEY ORGANOIDS” (RGENORGANO BIOTECHNOLOGY CO., LTD., priority 2021, published 2025).

Experiment [1] relates to human iPSC-derived kidney organoids. In words: Confocal imaging of PECAM1+ vasculature around NPHS1+ or WT1+ glomerular structure in kidney organoids. Type of experiment: cell-based. The note with it: Protocol B: VEGF (days 6, 9, 12, 14) and 10 μM Compound 1 (day 12) added together to Protocol A; FIG. 2A. The protocol: While Protocol B was largely similar to Protocol A, to enhance a vascular network, VEGF (10 ng/ml, 20 ng/ml, 30 ng/ml, and 50 ng/ml each) was treated on days 6, 9, 12, and 14, and to enhance podocyte differentiation, 10 μM Compound 1 was treated on day 12. For immunofluorescent analysis, organoids were fixed on day 18 unless otherwise noted. Specifically, for fixation, equal volumes of PBS (Thermo Fisher Scientific) and 8% paraformaldehyde (Electron Microscopy Sciences) were added to a medium for 15 minutes, and then the sample was washed with PBS three times. Subsequently, the fixed organoid culture was blocked with 5% donkey serum (Millipore)+0.3% Triton-X-100/PBS. Afterward, the blocked organoid culture was incubated in PBS containing 3% bovine serum albumin (Sigma)+ primary antibodies [anti-acetylated tubulin (Sigma-Aldrich T7451, 1:200), anti-collagen IV (Southern Biotech 1340-01, 1:300), anti-cytokeratin 8 (Abcam ab9023, 1:200), anti-GATA3 (R&D AF2605, 1:200), anti-Gb3 (TCI […], 1:200), anti-GLA (Thermo Fisher Scientific PA5-27349, 1:1000), anti-laminin (Sigma-Aldrich L9393. 1:200), anti-LTL (Vector Labs FL-1321, 1:200 dilution), […]32 (BD Pharmingen 555849, 1:200), anti-NPHS1 ([…] (Abcam ab9498, 1:200), anti-TUBA4A (Abcam ab24610, 1:200), and anti-WT1 (Abcam ab89901, 1:200)] overnight, washed, and then incubated with Alexa Fluor secondary antibodies (Invitrogen). […]

Experiment [2] relates to GLA mutant kidney organoids. In words: Immunofluorescent staining of Gb3 (Gb3 positive area) in GLA mutant kidney organoids. The note with it: GLA mutant kidney organoids (Protocol B) after treatment with agalsidase-α (ERT); FIGS. 4D and 4E. Type of experiment: cell-based, human. The protocol: For immunofluorescent analysis, organoids were fixed on day 18 unless otherwise noted. Specifically, for fixation, equal volumes of PBS (Thermo Fisher Scientific) and 8% paraformaldehyde (Electron Microscopy Sciences) were added to a medium for 15 minutes, and then the sample was washed with PBS three times. Subsequently, the fixed organoid culture was blocked with 5% donkey serum (Millipore)+0.3% Triton-X-100/PBS. Afterward, the blocked organoid culture was incubated in PBS containing 3% bovine serum albumin (Sigma)+ primary antibodies [anti-acetylated tubulin (Sigma-Aldrich T7451, 1:200), anti-collagen IV (Southern Biotech 1340-01, 1:300), anti-cytokeratin 8 (Abcam ab9023, 1:200), anti-GATA3 (R&D AF2605, 1:200), anti-Gb3 (TCI A2506, 1:200), anti-GLA (Thermo Fisher Scientific PA5-27349, 1:1000), anti-laminin (Sigma-Aldrich L9393. 1:200), anti-LTL (Vector Labs FL-1321, 1:200 dilution), antiMECA32 (BD Pharmingen 555849, 1:200), anti-NPHS1 (R&D AF4269, 1:200), anti-Pecaml (Abcam ab9498, 1:200), anti-TUBA4A (Abcam ab24610, 1:200), and anti-WT1 (Abcam ab89901, 1:200)] overnight, washed, and then incubated with Alexa Fluor secondary antibodies (Invitrogen). Afterward, the resulting organoids were washed and stained with DAPI, or mounted using Vectashield H-1000. Images were obtained using a Zeiss LSM 700 confocal microscope (Carl Zeiss, Germany) and ZEN 3.1 software. […]

Experiment [3] has as its system GLA mutant kidney organoids. As to the kind of experiment: Immunofluorescent staining of NPHS1, PECAM1 and LTL: vasculopathy phenotype in GLA mutant kidney organoids. The class given is cell-based, human. The note with it: GLA mutant kidney organoids produced by Protocol B, ERT; FIG. 4F. The protocol:
For immunofluorescent analysis, organoids were fixed on day 18 unless otherwise noted. Specifically, for fixation, equal volumes of PBS (Thermo Fisher Scientific) and 8% paraformaldehyde (Electron Microscopy Sciences) were added to a medium for 15 minutes, and then the sample was washed with PBS three times. Subsequently, the fixed organoid culture was blocked with 5% donkey serum (Millipore)+0.3% Triton-X-100/PBS. […]
Next, the phenotype of the vasculopathy in Fabry disease was determined using GLA mutant kidney organoids produced by Protocol B. Immunofluorescent staining analyses of NPHS1, PECAM1, and LTL were conducted on the wild type, GLA mutant kidney organoids, and human recombinant agalsidase-α-treated GLA mutant kidney organoids.

“Also recorded” adds a separate entry of the source.

On to `NC(=O)c1ccc(-c2nc(-c3ccc4c(c3)OCO4)c(-c3ccccn3)[nH]2)cc1` [Compound 1, 4-[4-(1,3-benzodioxol-5-yl)-5-pyridin-2-yl-1H-imidazol-2-yl]benzamide, reference compound], for which the “vascularization surrounding the glomerular structure” value in experiment [1] is reported as “significantly improved”.

With VEGF, in experiment [1], the “vascularization surrounding the glomerular structure” value was “significantly improved”.

B1: agalsidase-α: recombinant human agalsidase-α used as recombinant enzyme replacement therapy (ERT) (protein, UniProt P06280 32-429, looked up)
Alpha-galactosidase A: LDNGLARTPTMGWLHWERFMCNLDCQEEPDSCISEKLFMEMAELMVSEGWKDAGYEYLCIDDCWMAPQRDSEGRLQADPQRFPHGIRQLANYVHSKGLKLGIYADVGNKTCAGFPGSFGYYDIDAQTFADWGVDLLKFDGCYCDSLENLADGYKHMSLALNRTGRSIVYSCEWPLYMWPFQKPNYTEIRQYCNHWRNFADIDDSWKSIKSILDWTSFNQERIVDVAGPGGWNDPDMLVIGNFGLSWNQQVTQMALWAIMAAPLFMSNDLRHISPQAKALLQDKDVIAINQDPLGKQGYQLRQGDNFEVWERPLSGLAWAVAMINRQEIGGPRSYTIAVASLGKGVACNPACFITQLLPVKRKLGFYEWTSRLRSHINPTGTVLLQLENTMQMSLKDLL
Turning to B1, in experiment [2], the Gb3 accumulation result was “decreased”. In addition, the “vascular network (glomerular angiogenesis and formation of large lumen vessels)” value in experiment [3] is reported as “restored the vascular network; also recorded: restored a vascular network”.
